According to PubChem BioAssay (NCI):
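96-well plates; 48 h exposure; 5 concentrations. Endpoints by linear interpolation between flanking doses. Not reached: highest tested concentration assigned. GI50 is the concentration that inhibits growth by half. TGI marks complete inhibition of growth.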

Experiments:
Experiment in all cases: growth of human tumour cells (NCI), 48 h
[1] = tested on: PC-3 prostate
[2] = tested on: RPMI-8226 leukemia
[3] = tested on: HOP-62 NSCLC
[4] = tested on: ACHN renal
[5] = tested on: MDA-MB-231 breast
[6] = tested on: SK-MEL-5 melanoma
[7] = tested on: U251 CNS
[8] = tested on: DU-145 prostate
[9] = tested on: HCT-15 colon
[10] = tested on: NCI-H522 lung
[11] = tested on: T-47D breast
[12] = tested on: A549 NSCLC
[13] = tested on: COLO 205 colon
[14] = tested on: RXF 393 renal
[15] = tested on: K-562 leukemia
[16] = tested on: HCC-2998 colon
[17] = tested on: SW-620 colon
[18] = tested on: SNB-75 CNS
[19] = tested on: OVCAR-4 ovarian
[20] = tested on: SF-295 CNS
[21] = tested on: OVCAR-5 ovarian
[22] = tested on: HS 578T breast
[23] = tested on: OVCAR-8 ovarian
[24] = tested on: MCF7 breast
[25] = tested on: LOX IMVI melanoma
[26] = tested on: SF-539 CNS
[27] = tested on: M14 melanoma
[28] = tested on: IGROV1 ovarian
[29] = tested on: MALME-3M melanoma
[30] = tested on: BT-549 breast
[31] = tested on: TK-10 renal
[32] = tested on: 786-0 renal
[33] = tested on: A498 renal
[34] = tested on: SK-MEL-28 melanoma
[35] = tested on: HCT-116 colon
[36] = tested on: SN12C renal
[37] = tested on: EKVX NSCLC
[38] = tested on: SNB-19 CNS
[39] = tested on: NCI/ADR-RES ovarian
[40] = tested on: SF-268 CNS
[41] = tested on: SK-MEL-2 melanoma
[42] = tested on: SK-OV-3 ovarian
[43] = tested on: HT29 colon
[44] = tested on: UO-31 renal
[45] = tested on: CAKI-1 renal
[46] = tested on: KM12 colon
[47] = tested on: MOLT-4 leukemia
[48] = tested on: NCI-H460 lung
[49] = tested on: HL-60(TB) leukemia
[50] = tested on: MDA-MB-435
[51] = tested on: OVCAR-3 ovarian
[52] = tested on: UACC-62 melanoma
[53] = tested on: NCI-H23 lung
[54] = tested on: UACC-257 melanoma
[55] = tested on: HOP-92 NSCLC
[56] = tested on: NCI-H226 lung

`Fc1ccc(-c2ncn(C3CCNCC3)c2-c2ccnc(Oc3cccc(C(F)(F)F)c3)n2)cc1` showed a GI50 [1] of 3.7 µM, a TGI [1] of 7.2 µM and a GI50 [2] of 4.87 µM. It also gave a TGI [2] of 11.7 µM, a GI50 [3] of 3.75 µM and a TGI [3] of 7.47 µM. The GI50 [4] was 3.29 µM, the TGI [4] was 6.47 µM and the GI50 [5] was 3.96 µM. The TGI [5] was 7.56 µM, the GI50 [6] was 3.28 µM and the TGI [6] was 6.5 µM. It also gave a GI50 [7] of 3.61 µM, a TGI [7] of 7.08 µM and a GI50 [8] of 3.99 µM. For the same compound, the TGI [8] was 7.37 µM, the GI50 [9] was 3.79 µM and the TGI [9] was 7.25 µM. The GI50 [10] was 4.03 µM, the TGI [10] was 7.95 µM and the GI50 [11] was 2.93 µM. The TGI [11] was 6.43 µM, the GI50 [12] was 4.23 µM and the TGI [12] was 7.94 µM. It also gave a GI50 [13] of 3.83 µM, a TGI [13] of 7.45 µM and a GI50 [14] of 2.66 µM. For the same compound, the TGI [14] was 6.42 µM, the GI50 [15] was 3.8 µM and the TGI [15] was 9.12 µM. The GI50 [16] was 3.92 µM, the TGI [16] was 8.35 µM and the GI50 [17] was 3.56 µM. The TGI [17] was 7.03 µM, the GI50 [18] was 2.01 µM and the TGI [18] was 6.52 µM. The GI50 [19] was 3.62 µM, the TGI [19] was 7.26 µM and the GI50 [20] was 3.92 µM. The TGI [20] was 8.1 µM, the GI50 [21] was 3.21 µM and the TGI [21] was 6.37 µM. For the same compound, the GI50 [22] was 1.98 µM, the TGI [22] was 7.07 µM and the GI50 [23] was 4.17 µM. It also gave a TGI [23] of 8.58 µM, a GI50 [24] of 3.68 µM and a TGI [24] of 7.3 µM. The GI50 [25] was 8.96 µM, the TGI [25] was 14.1 µM and the GI50 [26] was 3.92 µM. It also gave a TGI [26] of 7.68 µM, a GI50 [27] of 4.54 µM and a TGI [27] of 8.73 µM. For the same compound, the GI50 [28] was 3.67 µM, the TGI [28] was 7.88 µM and the GI50 [29] was 4.66 µM. The TGI [29] was 10.1 µM, the GI50 [30] was 4.34 µM and the TGI [30] was 9.51 µM. The GI50 [31] was 3.68 µM, the TGI [31] was 7.22 µM and the GI50 [32] was 3.82 µM. It also gave a TGI [32] of 7.49 µM, a GI50 [33] of 1.37 µM and a TGI [33] of 6.91 µM. It also gave a GI50 [34] of 3.62 µM, a TGI [34] of 6.93 µM and a GI50 [35] of 3.65 µM. The TGI [35] was 7.29 µM, the GI50 [36] was 3.93 µM and the TGI [36] was 7.47 µM. The GI50 [37] was 3.63 µM, the TGI [37] was 8.3 µM and the GI50 [38] was 3.94 µM. The TGI [38] was 7.67 µM, the GI50 [39] was 4.27 µM and the TGI [39] was 9.03 µM. It also gave a GI50 [40] of 3.64 µM, a TGI [40] of 7.37 µM and a GI50 [41] of 4.62 µM. The TGI [41] was 8.84 µM, the GI50 [42] was 3.82 µM and the TGI [42] was 7.31 µM. It also gave a GI50 [43] of 2.54 µM, a TGI [43] of 5.54 µM and a GI50 [44] of 2.8 µM. The TGI [44] was 6.41 µM, the GI50 [45] was 4.38 µM and the TGI [45] was 9.12 µM. It also gave a GI50 [46] of 3.93 µM, a TGI [46] of 7.36 µM and a GI50 [47] of 4.15 µM. The TGI [47] was 9.48 µM, the GI50 [48] was 3.82 µM and the TGI [48] was 7.81 µM. For the same compound, the GI50 [49] was 4.58 µM, the TGI [49] was 9.6 µM and the GI50 [50] was 3.99 µM. The TGI [50] was 8.15 µM, the GI50 [51] was 3.88 µM and the TGI [51] was 7.26 µM. It also gave a GI50 [52] of 4.05 µM and a TGI [52] of 7.59 µM.

In the case of `Nc1c(C(=O)N/N=C/c2ccco2)cnn1-c1ccnc2c(C(F)(F)F)cccc12`, the GI50 [1] is reported as 19.3 µM, the TGI [1] is reported as 49.1 µM and the GI50 [2] is reported as 19.9 µM. For the same compound, the TGI [2] was 54.2 µM, the GI50 [3] was 36.5 µM and the TGI [3] was greater than 100 µM. It also gave a GI50 [4] of 38.6 µM, a TGI [4] greater than 100 µM and a GI50 [5] of 17.3 µM. For the same compound, the TGI [5] was 38.9 µM, the GI50 [6] was 30 µM and the TGI [6] was greater than 100 µM. The GI50 [7] was 20.5 µM, the TGI [7] was 40.5 µM and the GI50 [53] was 35 µM. For the same compound, the TGI [53] was greater than 100 µM, the GI50 [8] was 18.3 µM and the TGI [8] was 36.5 µM. The GI50 [9] was 18.5 µM, the TGI [9] was 33.1 µM and the GI50 [10] was 29.5 µM. The TGI [10] was greater than 100 µM, the GI50 [11] was 39.5 µM and the TGI [11] was greater than 100 µM. For the same compound, the GI50 [54] was 95.3 µM, the TGI [54] was greater than 100 µM and the GI50 [12] was greater than 100 µM. For the same compound, the TGI [12] was greater than 100 µM, the GI50 [13] was 24.9 µM and the TGI [13] was 53.8 µM. For the same compound, the GI50 [14] was 22.7 µM, the TGI [14] was 43.7 µM and the GI50 [15] was 24.2 µM. For the same compound, the TGI [15] was 49.1 µM, the GI50 [16] was 22.8 µM and the TGI [16] was 48.5 µM. For the same compound, the GI50 [17] was 19.9 µM, the TGI [17] was 37.3 µM and the GI50 [18] was 28.1 µM. It also gave a TGI [18] of 97.7 µM, a GI50 [19] of 33.5 µM and a TGI [19] greater than 100 µM. For the same compound, the GI50 [20] was 38.7 µM, the TGI [20] was greater than 100 µM and the GI50 [21] was 23.3 µM. For the same compound, the TGI [21] was 61.6 µM, the GI50 [22] was 35.4 µM and the TGI [22] was 89.1 µM. It also gave a GI50 [23] of 24.2 µM, a TGI [23] of 57.1 µM and a GI50 [24] of 28 µM. For the same compound, the TGI [24] was 65.4 µM, the GI50 [25] was 17.4 µM and the TGI [25] was 31.2 µM. For the same compound, the GI50 [26] was 19.4 µM, the TGI [26] was 41.2 µM and the GI50 [55] was 25.9 µM. It also gave a TGI [55] of 80.8 µM, a GI50 [28] of 25.4 µM and a TGI [28] of 80.1 µM. For the same compound, the GI50 [29] was 73.3 µM, the TGI [29] was greater than 100 µM and the GI50 [30] was 18.2 µM. It also gave a TGI [30] of 40.7 µM, a GI50 [31] of 55.9 µM and a TGI [31] greater than 100 µM. It also gave a GI50 [32] of 43.6 µM, a TGI [32] greater than 100 µM and a GI50 [34] of 19.1 µM. For the same compound, the TGI [34] was 36.8 µM, the GI50 [56] was 88.8 µM and the TGI [56] was greater than 100 µM. The GI50 [35] was 18.2 µM, the TGI [35] was 32.2 µM and the GI50 [36] was 20.2 µM. For the same compound, the TGI [36] was 55 µM, the GI50 [37] was 82.2 µM and the TGI [37] was greater than 100 µM. The GI50 [38] was 40.3 µM, the TGI [38] was greater than 100 µM and the GI50 [39] was 20.6 µM. The TGI [39] was 41.5 µM, the GI50 [40] was 31.6 µM and the TGI [40] was 91.6 µM. The GI50 [41] was 57.4 µM, the TGI [41] was greater than 100 µM and the GI50 [42] was 86.4 µM. For the same compound, the TGI [42] was greater than 100 µM, the GI50 [43] was 19.8 µM and the TGI [43] was 38.8 µM. It also gave a GI50 [44] of 16.9 µM, a TGI [44] of 33.7 µM and a GI50 [45] of 37.5 µM. It also gave a TGI [45] greater than 100 µM, a GI50 [46] of 31.9 µM and a TGI [46] of 75 µM. The GI50 [47] was 23.9 µM, the TGI [47] was 63.5 µM and the GI50 [48] was 48.1 µM. The TGI [48] was greater than 100 µM, the GI50 [49] was 25.8 µM and the TGI [49] was 49.5 µM. The GI50 [50] was 26.2 µM, the TGI [50] was 75.3 µM and the GI50 [51] was 17.8 µM. For the same compound, the TGI [51] was 39 µM, the GI50 [52] was 35.9 µM and the TGI [52] was greater than 100 µM.
